Test results taken from PMC9645260, “Small-molecule inhibitors of P-Rex guanine-nucleotide exchange factors” (Small GTPases, 2022).

Molecular target: T1, ITSN1 (DHPH) (Homo sapiens, UniProt Q15811)
T1 construct: The ITSN1 DHPH domains and Ect2 DHPH domains, produced in and purified from bacteria; host or cells: bacteria
T1 sequence (Q15811 1229-1580 limits assumed): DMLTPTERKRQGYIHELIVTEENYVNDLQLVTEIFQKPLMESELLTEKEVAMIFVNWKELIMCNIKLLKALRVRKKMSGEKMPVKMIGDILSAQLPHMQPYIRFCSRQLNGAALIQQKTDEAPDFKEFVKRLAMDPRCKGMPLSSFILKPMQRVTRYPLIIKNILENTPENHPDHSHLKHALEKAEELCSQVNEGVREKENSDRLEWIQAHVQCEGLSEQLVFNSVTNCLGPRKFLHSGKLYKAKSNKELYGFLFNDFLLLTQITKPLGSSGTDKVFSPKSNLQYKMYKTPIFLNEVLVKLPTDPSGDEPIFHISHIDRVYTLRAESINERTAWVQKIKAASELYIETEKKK
Test: Liposome-based GEF activity assay, ITSN1
Type: biochemical
Conditions: 10 µM, 100 nM ITSN1 DHPH
Description: Full-length N-terminally EE-tagged P-Rex1, P-Rex2, the P-Rex1 DH and DHPH domains and the P-Rex2 DH domain were produced in Sf9 cells using baculoviral transduction and were purified using anti-EE beads, as previously described. Briefly, frozen pellets from 500 ml of Sf9 culture infected with P-Rex expressing high-titre baculovirus were resuspended in ice-cold lysis Sf9-cell lysis buffer 2 (1x PBS, 1% Triton X-100, 5 mM EGTA, 1 mM EDTA, 25 mM NaF, 20 mM β-glycerophosphate, 1 mM DTT, 100 µM PMSF, 10 μg/ml each of leupeptin, pepstatin A, aprotinin and antipain) for 5 min and then ultracentrifuged at 118,000 × g for 1 h at 4°C. Supernatants were incubated with pre-washed anti-EE beads for 90 min on ice with end-over-end rotation. […] Protein concentration and purity were determined by coomassie staining of SDS-PAGE gels. […]
Liposome-based GEF activity assays were carried out essentially as described, except that GEFs were incubated with inhibitor compounds prior to the assay. […] Small GTPases were isolated using anti-EE antibody-coupled Sepharose beads or glutathione Sepharose beads, as appropriate, by incubation on ice for 90 min with end-over-end rotation, four washes in ice-cold wash buffer and resuspension of beads in Ultima Gold scintillation fluid (Perkin Elmer). ^35S-GTPγS incorporation was assessed by scintillation counting (Packard 1600TR, Liquid Scintillation Analyser).

COc1ccc(-c2[nH]nc3c2C(c2ccc(-c4ccc(Cl)cc4)o2)C(C#N)=C(N)O3)cc1 (stereo not shown) [PREX-in1, 6-amino-4-[5-(4-chlorophenyl)-2-furyl]-3-(4-methoxyphenyl)-2,4-dihydropyrano[2,3-c]pyrazole-5-carbonitrile]
effect on GEF activity of ITSN1: none of the other GEFs were affected
